Assay [1] concerns uterus. Kind of assay: Post-menopausal ovariectomized rat model: wet uterine weight. The format is in vivo, female Sprague Dawley rats. The note with it: daily for 4 days.
The test system of assay [2] is Serum Cholesterol. The experiment in a line: Serum cholesterol in ovariectomized rats (Cholesterol Analysis). Format: in vivo, female Sprague Dawley rats. The conditions noted are these: daily for 4 days.

Consider `COC(=O)c1ccc2c(C(=O)c3ccc(OCCN4CCCCC4)cc3)c(-c3ccc(O)cc3)sc2c1.Cl` [Example 1, [2-(4-Hydroxyphenyl)-6-methoxycarbonylbenzo[b]thien-3-yl][4-[2-(1-piperidinyl)ethoxy]phenyl]methanone Hydrochloride], for which the “Uterine Wt. (% Inc.) versus the ovariectomized controls” value in assay [1] (0.1 mg/kg PO) is on record as 46.9%; in assay [1] (1 mg/kg PO), 19.1%; in assay [1] (10 mg/kg PO), 45.2%. Besides, the “Serum Cholesterol (% Dec.) versus ovariectomized controls” value in assay [2] (0.1 mg/kg PO) is listed as -8.6%.

`CCCCOC(=O)c1ccc2c(C(=O)c3ccc(OCCN4CCCCC4)cc3)c(-c3ccc(O)cc3)sc2c1` [Example 2, [2-(4-Hydroxyphenyl)-6-n-butoxycarbonylbenzo[b]thien-3-yl][4-[2-(1-piperidinyl)ethoxy]phenyl]methanone]: the entries for the “Uterine Wt. (% Inc.) versus the ovariectomized controls” value in assay [1] (0.1 mg/kg PO), in assay [1] (1 mg/kg PO) and in assay [1] (10 mg/kg PO) were 19.4%, 16.8% and 52.5%, respectively. Further, in assay [2] (0.1 mg/kg PO), the “Serum Cholesterol (% Dec.) versus ovariectomized controls” value is recorded as -1.2%.

Consider `CC(C)COC(=O)c1ccc2c(C(=O)c3ccc(OCCN4CCCCC4)cc3)c(-c3ccc(O)cc3)sc2c1` [Example 3], for which the “Uterine Wt. (% Inc.) versus the ovariectomized controls” value in assay [1] (0.1 mg/kg PO) amounted to 11.8%; in assay [1] (1 mg/kg PO), 21.7%; in assay [1] (10 mg/kg PO), 47.1%. Also, the “Serum Cholesterol (% Dec.) versus ovariectomized controls” value in assay [2] (0.1 mg/kg PO) is -2.4%; in assay [2] (1 mg/kg PO), 8.7%; in assay [2] (10 mg/kg PO) it was 58.0%.

In the case of `Cl.O=C(O)c1ccc2c(C(=O)c3ccc(OCCN4CCCCC4)cc3)c(-c3ccc(O)cc3)sc2c1` [Example 4, [2-(4-Hydroxyphenyl)-6-carboxybenzo[b]thien-3-yl][4-[2-(1-piperidinyl)ethoxy]phenyl]methanone Hydrochloride], the “Uterine Wt. (% Inc.) versus the ovariectomized controls” value in assay [1] (0.1 mg/kg PO) is on record as 18.8%; in assay [1] (1 mg/kg PO), 27.2%; in assay [1] (10 mg/kg PO), 29.6%. In addition, the “Serum Cholesterol (% Dec.) versus ovariectomized controls” value in assay [2] (0.1 mg/kg PO) worked out at 0.6%.

Turning to `CC(=O)c1ccc2c(C(=O)c3ccc(OCCN4CCCCC4)cc3)c(-c3ccc(O)cc3)sc2c1` [Example 5, [2-(4-Hydroxyphenyl)-6-acetylbenzo[b]thien-3-yl][4-[2-(1-piperidinyl)ethoxy]phenyl]methanone], the “Uterine Wt. (% Inc.) versus the ovariectomized controls” value in assay [1] (0.1 mg/kg PO) was found to be 18.8%; in assay [1] (1 mg/kg PO), 51.8%; in assay [1] (10 mg/kg PO), 69.4%. For the same molecule, the “Serum Cholesterol (% Dec.) versus ovariectomized controls” value in assay [2] (0.1 mg/kg PO) was -6.3%.

With `C#Cc1ccc2c(C(=O)c3ccc(OCCN4CCCCC4)cc3)c(-c3ccc(O)cc3)sc2c1` [Example 6, [2-(4-Hydroxyphenyl)-6-ethynylbenzo[b]thien-3-yl][4-[2-(1-piperidinyl)ethoxy]phenyl]methanone], the “Uterine Wt. (% Inc.) versus the ovariectomized controls” value stood at 14.3% in assay [1] (0.1 mg/kg PO), 27.8% in assay [1] (1 mg/kg PO) and 22.5% in assay [1] (10 mg/kg PO).
